Test results taken from patent publication US7741520B2, “Sulfonanilide analogs as selective aromatase modulators (SAMs)” (The Ohio State University Research Foundation, priority 2006, dated 2010).

Assays:
[1] = tested on: CYP19 mRNA expression in SK-BR-3 cells; experiment: CYP19 mRNA expression by real-time RT-PCR in SK-BR-3 cells; assay type: cell-based, human; settings: 25 μM, 24 h (FIG. 5)
Experimental: RNA Extraction. Total RNA was isolated using the TRIzol reagent according to the manufacturer's protocol. Total RNA pellets were dissolved in DNase- and RNase-free water and quantitated using a spectrophotometer. The quality of RNA samples was determined by electrophoresis through agarose gels and staining with ethidium bromide; the 18S and 28S rRNA bands were visualized under ultraviolet light.
(§1) cDNA Synthesis. Isolated total RNA (2 μg) was treated with DNase I Amplification grade, according to the recommended protocol to eliminate any DNA before reverse transcription. Treated total RNA was denatured at 65° C. for 5 min in the presence of 2.5 ng/μL random hexamers and 0.5 mM dNTP mix. The samples were snap-cooled on ice and centrifuged briefly. Complementary DNA (cDNA) was synthesized using Superscript II reverse transcriptase according to the recommended protocol. Briefly, the reactions were conducted in the presence of 1× First-Strand Buffer and 20 mM DTT at 42° C. for 50 min and consequently inactivated at 70° C. for 15 min. The cDNA generated was used as a template in realtime PCR reactions.
Real-Time PCR. Real-time PCR was performed using the Opticon 2 system from MJ Research (Waltham, Mass.). For the CYP19 total gene the PCR reaction mixture consisted of Taqman Universal PCR Master Mix (Applied Biosystems), 600 nM of CYP19 primer (sense: 5′-TGTCTCTTTGTTCTTCATGCTATTTCTC-3′ (SEQ ID NO: 1); antisense: 5′-TCACCAATAACAGTCTGGATTTCC-3′) (SEQ ID NO: 2); 250 nM Taqman probe (6FAM 5′-TGCAAAGCACCCTAATGTTGAAGAGGCAAT-3′TAMRA) (SEQ ID NO: 3) (Invitrogen), 18S rRNA (Applied Biosystems, Foster City, Calif.), and 2.0 μL of each RT sample in a final volume of 20 μL. The Taqman probe was designed to anneal to a specific sequence of the aromatase gene between the forward and the reverse primers. Cycling conditions were 50° C. for 2 mm and 95° C. for 10 mm, followed by 50 cycles at 95° C. for 15 s and 60° C. for 1 mm.
RNA extraction. Total RNA was isolated using the TRIzol reagent according to the manufacturer's protocol. Total RNA pellets were dissolved in DNase, RNase-free water and quantitated using a spectrophotometer. The quality of RNA samples was determined by electrophoresis through agarose gels and staining with ethidium bromide; the 18S and 28S rRNA bands were visualized under ultraviolet light.
as §1, with “synthesis.” for “Synthesis.”, “real-time” for “realtime”
Real-time PCR. Real-time PCR was performed using the Opticon™ 2 system from MJ Research (Waltham, Mass.). For the CYP19 total gene the PCR reaction mixture consisted of Taqman® Universal PCR Master Mix (Applied Biosystems), 600 nM of CYP19 primer (sense: 5′-TGTCTCTTTGTTCTTCATGCTATTTCTC-3′ (SEQ ID NO: 1); antisense: 5′-TCACCAATAACAGTCTGGATTTCC-3′) (SEQ ID NO: 2); 250 nM Taqman probe (6FAM 5′-TGCAAAGCACCCTAATGTTGAAGAGGCAAT-3′TAMRA) (SEQ ID NO: 3) (Invitrogen), and 2.0 μL of each cDNA sample in a final volume of 20 μL. […]

[2] = tested on: PGE2 production in MDA-MB-231 cells; experiment: Enzyme immunoassay of PGE2 in MDA-MB-231 cells (COX-2 inhibitory activity); assay type: cell-based, human; settings: 25 μM, 24 h (FIG. 4)
Experimental: Enzyme Immunoassay of PGE2 in MDA-MB-231 Cells. MDA-MB-231 cells were obtained from ATCC (Rockville, Md.). Cell cultures were maintained in phenol red-free custom media (MEM, Earle's salts, 1.5× amino acids, 2× nonessential amino acids, L-glutamine, 1.5× vitamins, Gibco BRL) supplemented with 10% fetal bovine serum (FBS), 2 mM L-glutamine and 20 mg/L gentamycin. To study PGE2 synthesis in cell culture media, experiments were performed in […] Petri dishes. An aliquot of MDA-MB-231 cells (15×10^4 cells) were added to each dish and then incubated overnight to allow the cells to adhere to the dish. After that, cells were serum starved in defined media for 24 h. This step was followed by replacement of media with fresh media containing either vehicle (DMSO) or the indicated concentration of agents. After 24 h incubation at 37° C. the media were collected and the amount of PGE2 was determined by ELISA (Cayman Chemical) according to the protocol provided by the manufacturer. PGE2 concentration was normalized to total protein. Total proteins were extracted from adhered cells by 30 min treatment with 0.5 M NaOH at room temperature and shaking. Protein concentrations in these extracts were determined using a protein assay method (Bio-Rad Laboratories, Inc., Hercules, Calif.).

[3] = tested on: aromatase activity in SK-BR-3 breast cancer cells; experiment: Aromatase tritiated water-release assay in SK-BR-3 cell lines (first compound set); assay type: cell-based, human; settings: SK-BR-3 cells; for IC50: 24 h treatment, five concentrations, each in triplicate, read-out: IC50 (μM), suppression of aromatase activity in SK-BR-3 breast cancer cells
Experimental: Aromatase Tritiated Water-Release Assay in SK-BR-3 Cell Lines. SK-BR-3 cells were obtained from ATCC (Rockville, Md.). Cell cultures were maintained in phenol red-free custom media (MEM, Earle's salts, 1.5× amino acids, 2× nonessential amino acids, L-glutamine, 1.5× vitamins, Gibco BRL) supplemented with 10% fetal bovine serum (FBS), 2 mM L-glutamine, and 20 mg/L gentamycin. Measurement of aromatase enzyme activity was based on the tritium water release assay. 24 Cells in 100 mm Petri dish were treated with 0.1% DMSO (control), and inhibitors at the indicated concentrations. After 24 h, the media was changed and the cells were incubated with 100 nM [1â-3H]-androst-4-ene-3,17-dione ([…]) for 3 h. Subsequently, the reaction mixture was removed, and proteins were precipitated using 10% trichloroacetic acid at 42° C. for 20 min. After a brief centrifugation, the media was extracted three times with an equal amount of chloroform to extract unused substrate and further dextran-treated charcoal. After centrifugation, a 250-μL aliquot containing the product was counted in 5 mL of liquid scintillation mixture. Results were corrected for blanks and for the cell contents of culture flasks, and results were expressed as picomoles of 3H2O formed per hour incubation time per million live cells (pmol/h/10^6 cells). To determine the amount of cells in each flask, the cells were trypsinized and analyzed using the diphenylamine DNA assay adapted to a 96-well plate. (Natarajan N.; Shambaugh, G. E., 3rd; Elseth K. M.; Haines G. K.; Radosevich J. A. Adaptation of the diphenylamine (DPA) assay to a 96-well plate tissue culture format and comparison with the MTT assay. Biotechniques 1994, 17, 166-171; incorporated herein by reference). IC50 sigmoidal dose-response data were analyzed with Microsoft Excel and the Graphpad Prism (Version 3.0) program.

[4] = tested on: aromatase activity in SK-BR-3 breast cancer cells; experiment: as above; assay type: cell-based, human; settings: SK-BR-3 cells

SMILES | melting point | CYP19 gene expression relative to control [1] | PGE2 production (COX-2 inhibitory activity) [2] | IC50 [3] | time-course of suppression of aromatase activity ([4]; 2 μM) | time-course of suppression of aromatase activity ([4]; 10 μM) | time-course of suppression of aromatase activity ([4]; 10 nM) | increase of aromatase activity after removing the drug ([3]; letrozole 10 nM, after removal of drug)
CCC(CC)Oc1cc([N+](=O)[O-])ccc1NS(C)(=O)=O [Compound 13, N-(2-(1-Ethyl-propyloxy-4-nitrophenyl))methanesulfonamide] | 100 to 102 °C | significantly decreased CYP19 gene expression | significantly decrease in PGE2 production | 0.3 µM | – | – | – | –
CN(c1ccc([N+](=O)[O-])cc1OC1CCCCC1)S(C)(=O)=O [Compound 17, N-Methyl-N-(2-cyclohexyloxy-4-nitrophenyl)methanesulfonamide] | 129 to 132 °C | significantly decreased CYP19 gene expression | did not show any inhibitory activity | 0.47 µM | prolonged reversible suppression of aromatase | – | – | –
CCC(CC)Oc1cc([N+](=O)[O-])ccc1N(C)S(C)(=O)=O [Compound 22, N-Methyl-N-(2-(1-ethyl-propyloxy-4-nitrophenyl))methanesulfonamide] | 89 to 90 °C | significantly decreased CYP19 gene expression | did not show any inhibitory activity | 0.23 µM | – | – | – | –
C[C@@H]1C[C@@H]([C@H](O)CC2CC(=O)NC(=O)C2)C(=O)[C@@H](C)C1 [Cycloheximide] | – | – | – | – | – | showed similar results | – | –
CS(=O)(=O)Nc1ccc([N+](=O)[O-])cc1OC1CCCCC1 [NS-398, N-(2-Cyclohexyloxy-4-nitrophenyl)methanesulfonamide, reference compound] | – | significantly decreased CYP19 gene expression | significantly decrease in PGE2 production | 0.68 µM | prolonged reversible suppression of aromatase | – | – | –
N#Cc1ccc(C(c2ccc(C#N)cc2)n2cncn2)cc1 [letrozole, reference compound] | – | – | – | – | – | – | acute inhibition | 150%
